These results are taken from patent publication US10301294B2, “Compounds for the treatment of tuberculosis” (priority 2013, dated 2019).

By IC50 is commonly meant the concentration that gives 50% inhibition. For orientation: IC90 means the concentration at which the effect reaches the 90% level.

Holding throughout (format): cell-based
Data set [1] in a line: Cytotoxicity against HepG2. The following applies: human, HepG2 cells, 26.0 uM highest concentration measured.
For data set [2], the system named is replicating M. tuberculosis H37Rv. The experiment in a line: microbe, parasite or virus in culture. The following applies: Mycobacterium tuberculosis, H37RV, three independent experiments in triplicate, read-out: TB Growth Inhibition Activity, IC90 Replicating_logarithmic (converted).
Data set [3] relates to carbon-starved M. tuberculosis H37Rv. Briefly: Non-replicating IC90 determination by luciferase (carbon-starved cells). As to conditions: Mycobacterium tuberculosis, H37RV; non-replicating carbon-starved Mtb, luciferase; three independent experiments in triplicate; read-out: TB Growth Inhibition Activity, IC90 Non-replicating_luciferase.
The nature of data set [4]: Cytotoxicity against HeLa. The following applies: human, HeLa cells, 26.0 uM highest concentration measured.
A short description of data set [5]: Cytotoxicity against Hek 293. As to conditions: human, HEK293 cells, 26.0 uM highest concentration measured.

Regarding `CS(=O)(=O)c1cccc(CSc2nnc(-c3ccccc3)o2)c1`, the IC50 in data set [1], in data set [4] and in data set [5] was greater than 26 µM throughout. Further, the concentration for an effect of 90% (IC90) in data set [2] and in data set [3] was 250 µM each time.

Turning to `COc1cccc(-c2nnc(SCc3ccccc3)o2)c1`, the IC50 in data set [1], in data set [4] and in data set [5] was greater than 26 µM each time. Besides, the IC90 in data set [2] was 250 µM; in data set [3], 8 µM.

As for `c1ccc(Cn2cc(CSc3nnc(C4CCC4)o3)nn2)cc1`, the IC50 in data set [1], in data set [4] and in data set [5] was greater than 26 µM in each case. Besides, the concentration for an effect of 90% (IC90) in data set [2] was greater than 62 µM; in data set [3], 8 µM.

With `c1ccc(-n2cc(CSc3nnc(C4CCC4)o3)nn2)cc1`, the IC50 in data set [1], in data set [4] and in data set [5] was greater than 26 µM each time. Besides, the IC90 in data set [2] was 62 µM; in data set [3], 2 µM.

Take `Cc1ccccc1CSc1nnc(-c2ccccc2)o1`: the IC50 in data set [1], in data set [4] and in data set [5] was greater than 26 µM throughout. Also, the values for the 90% effect concentration (IC90) in data set [2] and in data set [3] were 250 µM and 8 µM, respectively.

`Fc1ccc(Cn2cc(CSc3nnc(C4CCCC4)o3)nn2)cc1`: the IC50 in data set [1], in data set [4] and in data set [5] was greater than 26 µM in each case. The results for the IC90 in data set [2] and in data set [3] were greater than 62 µM and 31 µM, respectively.

In the case of `Clc1ccc(-c2nnc(SCc3cn(-c4ccccc4)nn3)o2)cc1` [drawing 164], the IC50 in data set [1], in data set [4] and in data set [5] was greater than 26 µM in each case. Also, the 90% effect concentration (IC90) in data set [2] is greater than 62 µM; in data set [3] it was 1 µM.

As for `c1ccc(Cn2cc(CSc3nnc(C4CCCC4)o3)nn2)cc1`, the concentration for half-maximal inhibition (IC50) in data set [1], in data set [4] and in data set [5] was greater than 26 µM in each case. Also, the results for the concentration for an effect of 90% (IC90) in data set [2] and in data set [3] were 62 µM and 31 µM, respectively.

As to `Fc1cccc(CSc2nnc(-c3ccccc3)o2)c1`, the half-inhibitory concentration (IC50) in data set [1], in data set [4] and in data set [5] was greater than 26 µM throughout. Further, the IC90 is 250 µM in data set [2] and 2 µM in data set [3].

As for `FC(F)(F)c1cccc(CSc2nnc(-c3ccccc3)o2)c1`, the IC50 in data set [1], in data set [4] and in data set [5] was greater than 26 µM throughout. In addition, the values for the 90% effect concentration (IC90) in data set [2] and in data set [3] were 250 µM and 4 µM, respectively.

Take `CS(=O)(=O)c1ccccc1-c1nnc(SCc2ccccc2)o1`: the 50% inhibitory concentration (IC50) in data set [1], in data set [4] and in data set [5] was greater than 26 µM throughout. The results for the IC90 in data set [2] and in data set [3] were 500 µM and 62 µM, respectively.

For the compound `Clc1ccccc1-c1nnc(SCc2ccccc2)o1`, the half-maximal inhibitory concentration (IC50) in data set [1], in data set [4] and in data set [5] was greater than 26 µM each time. In addition, the figures for the concentration for an effect of 90% (IC90) in data set [2] and in data set [3] were 250 µM and 32 µM, respectively.

For the compound `O=S(=O)(Cc1ccccc1)c1nnc(-c2ccccc2)o1` [drawing 80], the IC50 in data set [1], in data set [4] and in data set [5] was greater than 26 µM each time. For the same compound, the 90% effect concentration (IC90) is 125 µM in data set [2] and 8 µM in data set [3].

As to `c1ccc(CCc2nnc(-c3ccccc3)o2)cc1`, the concentration for half-maximal inhibition (IC50) in data set [1], in data set [4] and in data set [5] was greater than 26 µM in each case. Further, the figures for the IC90 in data set [2] and in data set [3] were 250 µM and 0.5 µM, respectively.

In the case of `Clc1ccc(-c2nnc(SCc3cn(Cc4ccccc4)nn3)o2)cc1` [drawing 156], the 50% inhibitory concentration (IC50) in data set [1], in data set [4] and in data set [5] was greater than 26 µM each time. Besides, the IC90 in data set [2] was greater than 62 µM; in data set [3], 2 µM.

Turning to `Fc1ccccc1CSc1nnc(-c2ccccc2)o1`, the IC50 in data set [1], in data set [4] and in data set [5] was greater than 26 µM each time. Also, the IC90 in data set [2] is 250 µM; in data set [3] it was 1 µM.

In the case of `Fc1ccc(-c2nnc(SCc3ccccc3)o2)cc1`, the concentration for half-maximal inhibition (IC50) in data set [1], in data set [4] and in data set [5] was greater than 26 µM in each case. In addition, the IC90 in data set [2] is 125 µM; in data set [3] it was 2 µM.

For the compound `Cc1cccc(CSc2nnc(-c3ccccc3)o2)c1`, the IC50 in data set [1], in data set [4] and in data set [5] was greater than 26 µM in each case. Also, the IC90 in data set [2] is 125 µM; in data set [3], 1 µM.

For `FC(F)(F)c1ccccc1-c1nnc(SCc2ccccc2)o1`, the IC50 in data set [1], in data set [4] and in data set [5] was greater than 26 µM throughout. Moreover, the concentration for an effect of 90% (IC90) in data set [2] was 500 µM; in data set [3], 62 µM.

In the case of `Fc1ccc(Cn2cc(CSc3nnc(-c4ccc(Cl)cc4)o3)nn2)cc1`, the concentration for half-maximal inhibition (IC50) in data set [1], in data set [4] and in data set [5] was greater than 26 µM throughout. In addition, the 90% effect concentration (IC90) in data set [2] was greater than 62 µM; in data set [3], 2 µM.

Take `c1ccc(-c2nnc(SCc3ccccn3)o2)cc1` [drawing 142]: the 50% inhibitory concentration (IC50) in data set [1], in data set [4] and in data set [5] was greater than 26 µM in each case. Further, the concentration for an effect of 90% (IC90) in data set [2] is 100 µM; in data set [3] it was 3 µM.

With `c1ccc(CSc2nnc(-c3ccccc3)o2)cc1`, the IC50 in data set [1], in data set [4] and in data set [5] was greater than 26 µM in each case. Also, the concentration for an effect of 90% (IC90) was 62 µM in data set [2] and 8 µM in data set [3].

Take `c1ccc(-c2nnc(SCc3cscn3)o2)cc1`: the 50% inhibitory concentration (IC50) in data set [1], in data set [4] and in data set [5] was greater than 26 µM in each case. Moreover, the IC90 in data set [2] was 62 µM; in data set [3], 4 µM.

As for `c1ccc(CSc2nnc(-c3cccnc3)o2)cc1`, the IC50 in data set [1], in data set [4] and in data set [5] was greater than 26 µM throughout. Moreover, the concentration for an effect of 90% (IC90) was 125 µM in data set [2] and 2 µM in data set [3].

With `c1ccc(CSc2ncc(-c3ccccc3)o2)cc1`, the IC50 in data set [1], in data set [4] and in data set [5] was greater than 26 µM in each case. For the same compound, the IC90 in data set [3] was determined as 62 µM.

Regarding `N#Cc1ccccc1CSc1nnc(-c2ccccc2)o1`, the 50% inhibitory concentration (IC50) in data set [1], in data set [4] and in data set [5] was greater than 26 µM each time. Besides, the 90% effect concentration (IC90) in data set [3] turned out to be 4 µM.

As to `FC(F)(F)c1cccc(-c2nnc(SCc3ccccc3)o2)c1`, the IC50 in data set [1], in data set [4] and in data set [5] was greater than 26 µM throughout. In addition, the IC90 in data set [3] was found to be 31 µM.

For `COc1ccc(-c2nnc(SCc3ccccc3)o2)cc1`, the IC50 in data set [1], in data set [4] and in data set [5] was greater than 26 µM each time. In addition, in data set [3], the IC90 was determined as 31 µM.

For `FC(F)(F)Oc1ccc(CSc2nnc(-c3ccccc3)o2)cc1`, the concentration for half-maximal inhibition (IC50) in data set [1], in data set [4] and in data set [5] was greater than 26 µM throughout. For the same compound, the IC90 in data set [3] came to 1 µM.

For the compound `c1ccc(CNc2nnc(-c3ccccc3)o2)cc1`, the IC50 in data set [1], in data set [4] and in data set [5] was greater than 26 µM throughout. Besides, the concentration for an effect of 90% (IC90) in data set [3] amounted to 4 µM.

For `N#Cc1cccc(CSc2nnc(-c3ccccc3)o2)c1`, the half-inhibitory concentration (IC50) in data set [1], in data set [4] and in data set [5] was greater than 26 µM each time. The IC90 in data set [3] is 8 µM.

In the case of `Cc1ccccc1-c1nnc(SCc2ccccc2)o1`, the IC50 in data set [1], in data set [4] and in data set [5] was greater than 26 µM throughout. Moreover, the IC90 in data set [3] was determined as 16 µM.

Turning to `N#Cc1ccc(-c2nnc(SCc3ccccc3)o2)cc1`, the IC50 in data set [1], in data set [4] and in data set [5] was greater than 26 µM throughout. Further, the IC90 in data set [3] came out at 8 µM.

Turning to `CC1(O)CN(CCSc2nnc(-c3ccccc3)o2)C1`, the 50% inhibitory concentration (IC50) in data set [1], in data set [4] and in data set [5] was greater than 26 µM each time. The concentration for an effect of 90% (IC90) in data set [3] turned out to be 125 µM.

For `COc1ccc(CSc2nnc(-c3ccccc3)o2)cc1`, the IC50 in data set [1], in data set [4] and in data set [5] was greater than 26 µM each time. In data set [3], the IC90 was found to be 0.25 µM.

As to `Cc1nnc(SCc2ccccc2)o1`, the IC50 in data set [1], in data set [4] and in data set [5] was greater than 26 µM in each case. In addition, the IC90 in data set [3] is 31 µM.

In the case of `Cc1ccc(CSc2nnc(-c3ccccc3)o2)cc1`, the IC50 in data set [1], in data set [4] and in data set [5] was greater than 26 µM in each case. Moreover, the concentration for an effect of 90% (IC90) in data set [3] amounted to 1 µM.

For `c1ccc(CSc2nnc(-c3cnco3)o2)cc1`, the 50% inhibitory concentration (IC50) in data set [1], in data set [4] and in data set [5] was greater than 26 µM each time. In addition, in data set [3], the 90% effect concentration (IC90) was 8 µM.

On to `N#Cc1ccc(CSc2nnc(-c3ccccc3)o2)cc1`, for which the IC50 in data set [1], in data set [4] and in data set [5] was greater than 26 µM in each case. The IC90 in data set [3] turned out to be 2 µM.

Turning to `Clc1ccc(CSc2nnc(-c3ccccc3)o2)cc1`, the IC50 in data set [1], in data set [4] and in data set [5] was greater than 26 µM throughout. For the same compound, the concentration for an effect of 90% (IC90) in data set [3] stood at 1 µM.

For the compound `COc1cccc(CSc2nnc(-c3ccccc3)o2)c1`, the concentration for half-maximal inhibition (IC50) in data set [1], in data set [4] and in data set [5] was greater than 26 µM each time. Moreover, the IC90 in data set [3] worked out at 1 µM.

Take `FC(F)(F)Oc1ccc(-c2nnc(SCc3ccccc3)o2)cc1`: the IC50 in data set [1], in data set [4] and in data set [5] was greater than 26 µM in each case. In addition, the IC90 in data set [3] worked out at 2 µM.

`c1ccc(CSc2nnc(-c3cc4ccccc4o3)o2)cc1`: the half-maximal inhibitory concentration (IC50) in data set [1], in data set [4] and in data set [5] was greater than 26 µM throughout. Further, the IC90 in data set [3] was found to be 2 µM.
